From patent US11465980B2, “6-membered aza-heterocyclic containing delta-opioid receptor modulating compounds, methods of using and making the same” (Trevena, Inc., priority 2015, dated 2022) come the findings set out here.

One series relates to mouse. As to the kind of experiment: Tactile allodynia produced by nitroglycerin (migraine model, mouse). It is filed as in vivo. The conditions noted are these: route sc, nitroglycerin 10 mg/kg ip, p < 0.05 vs vehicle. As to the method:
Compounds were tested for efficacy in rodent models of nitroglycerine induced migraine. In this model both rats and mice can be induced to have a behavioral response consistent with the progression of a migraine attack by the intraperitoneal injection of nitroglycerin. In this test mice or rats (n=8/group) are given an intraperitoneal injection of nitroglycerin at 10 mg/kg. After 90 minutes the animals are subcutaneously dosed with test compound. A measurement of mechanical allodynia will be obtained using the up/down method with seven von Frey monofilaments. There is a specific series used for rat and mouse. Each monofilament is delivered to the hind paw for approximately 1-2 seconds. If there is a response, the next lower force will be delivered. This procedure will be performed until no response was made at the highest force or until four stimuli are administered following the initial response. The 50% paw withdrawal threshold for the hind paw will be calculated using the following formula: [Xth]log=[vFr]log+ky where [vFr] is the force of the last von Frey used, k is the average interval (in log units) between the von Frey monofilaments, and y is a value that depends upon the pattern of withdrawal responses. Testing for tactile sensitivity will be performed and a withdrawal value will be assigned as the tactile sensitivity (expressed in grams of force required to elicit a response) for the injected paw for each animal. Data is presented as the mean grams required to produce a hind paw withdrawal from the von Frey stimulus. […] Compounds found to be effective in this model of migraine at the doses indicated, although other doses may also be active. Other compounds described herein were not necessarily tested, but are expected to be able have some level of efficacy.

The test system of series [1] is rat. Put plainly: Hemilesioned rat 6-OHDA model (bar, drag, rotarod tests). The class given is in vivo. The conditions noted are these: route sc, p < 0.05 vs vehicle. As to the method: Compounds were tested for efficacy in reversing akinesia and bradykinesia in two well accepted rodent Parkinson's disease (PD) models; the haloperidol-induced rat catalepsy and 6-OHDA rat hemiparkinson lesion models.
In the hemilesioned rat 6-OHDA model, the effect of compound on the akinetic response to lesioning of the contralateral forepaw in the bar test and stepping activity as measured by the drag test were determined. […] This assay examines efficacy for reversing PD motor symptoms (i.e. akinesia/bradykinesia and gait abilities). The behavioral readouts will include immobility time in the bar test (akinesia), number of steps in the drag test (akinesia/bradykinesia) and time spent on rod in the rotarod test (overall gait ability, gross motor behavior). Compounds were administered subcutaneously and efficacy was evaluated between 30 and 90 min post dose.
A general note: Falling from the rotarod earlier than controls is read as motor impairment.

For series [2], the system named is rat. As to the kind of experiment: Mechanical allodynia after Freund's Complete Adjuvant, Randall-Selitto (rat). To be noted: route sc, p < 0.05 vs vehicle. It is filed as in vivo. As to the method:
Animals were acclimated to the vivarium for at least 48 hr prior to behavioral testing. Inflammation was induced for both rodent species with the administration of an intraplantar (subcutaneous injection into the plantar surface of the hind paw, i.pl.) injection of 0.10 ml Freund's Complete Adjuvant (FCA).
For rat studies, the experiments were conducted 24 hours after CFA administration. Rats are tested for mechanical allodynia in a Randall-Selitto apparatus. The inflamed paw is put on a pedestal and a pointed force of increasing intensity (0 to 250 grams) is applied to the paw. When the animal struggles to withdraw from the force the test is stopped and the force to induce that struggle is recorded. Data may be presented as mean grams of force to withdrawal or a percentage of the maximum possible effect.

Series [3] concerns male c57bl6J mice. As to the kind of experiment: Reversal of tactile allodynia produced by repeat dosing of sumatriptan (medication overuse headache). The class given is in vivo, mouse. To be noted: 10 mg/kg s.c., 30 min prior to testing; sumatriptan 0.6 mg/kg i.p. daily for 11 days; FIG. 3. The method, then: Compounds were evaluated for their ability to treat Medication Overuse Headache (“MOH”). Assessment of reversal of tactile allodynia produced by repeat dosing of sumatriptan in mice: Mice (44 male c57bl6J mice, n=8-9/group) were habituated for 2 days on testing rack prior to injections. Mice were treated with vehicle (VEH-VEH (saline) VEH-B1049 (10% BCD-saline)) or sumatriptan (SUMA) (0.6 mg/kg, i.p.) daily for 11 days. Mechanical sensitivity was measured as the 50% withdrawal threshold to manual von Frey hair stimulation on day 12. Baseline measurement were taken 24 hours after final SUMA/VEH injection and 3 h later, post-drug measurements were taken after dosing with B1049 (10 mg/kg, s.c., 30 min prior to testing) or SNC80 (10 mg/kg, i.p., 45 min prior to testing). (***p<0.001 compared to post-drug SUMA-VEH). The results are illustrated in FIG. 3.

Series [4] has as its system male c57bl6J mice. Put plainly: Reversal of opioid-induced hyperalgesia (morphine). The class given is in vivo, mouse. To be noted: 10 mg/kg s.c., 30 min prior to testing; morphine twice daily for 4 days; FIG. 4. The method, then:
Next it was determined that B1049 could reverse opioid-induced hyperalgesia. Mice (44 male c57bl6J mice, n=8-9/group) were habituated for 2 days on testing rack prior to injections. Mice were treated with vehicle (VEH-VEH (saline), VEH-B1049 (10% BCD-saline)) or morphine (MORPH) (20 mg/kg, s.c. days 1-3, 40 mg/kg s.c. day 4) twice daily (9 a.m. and 5 p.m.) for 4 days. Mechanical sensitivity was measured as the 50% withdrawal threshold to manual von Frey hair stimulation on day 5. Baseline measurement were taken 16 hours after final MORPH/VEH injection and 3 h later, post-drug measurements were taken after dosing with B1049 (10 mg/kg, s.c., 30 min prior to testing) or SNC80 (10 mg/kg, i.p., 45 min prior to testing). (***p<0.001 compared to post-drug SUMA-VEH). The results are illustrated in FIG. 4.

Series [5] has as its system male c57bl6J mice. Put plainly: Tactile allodynia produced by repeat dosing of test drug (induction of medication overuse headache). It is filed as in vivo, mouse. The conditions noted are these: daily for 11 days; B1049 10 mg/kg s.c., sumatriptan 0.6 mg/kg i.p.; FIG. 5. The method, then:
Mice (25 male c57bl6J mice, n=4-5/group) were habituated for 2 days on testing rack prior to injections. Mice were treated with vehicle (VEH-VEH (saline), VEH-B1049 (10% BCD-saline)), sumatriptan (SUMA) (0.6 mg/kg, i.p.), SNC80 (10 mg/kg, i.p.), or B1049 (10 mg/kg, s.c.) daily for 11 days. Mechanical sensitivity was measured as the 50% withdrawal threshold to manual von Frey hair stimulation on days 1 and 11. On these days, mice were habituated to the rack for 15-20 min, following which baseline mechanical thresholds were determined prior to administration of drug or control. On day 1 following assessment of baseline mechanical threshold, mice were weighed and injected with drug or control and returned to home cage. The results are illustrated in FIG. 5.

For `COCCOc1cccc([C@@H]2CCN(CCn3cccc3)[C@H](C)[C@H]2COc2ccc3c(c2)C(=O)NC3)c1` (relative stereo) [Compound B1049, (−)-6-{[(trans, trans)-4-[3-(2-methoxyethoxy)phenyl]-2-methyl-1-[2-(1H-pyrrol-1-yl)ethyl]piperidin-3-yl]methoxy}-2,3-dihydro-1H-isoindol-1-one], the “Active Migraine Doses” value in the series on mouse is listed as no more than 10 mg/kg. The “Active Dose (hemilesioned rat 6-OHDA model)” value in the series with rat [1] was no more than 30 mg/kg. For the same molecule, in the series with rat [2], the “Active CFA Dose” value is listed as no more than 10 mg/kg. In the series with male c57bl6J mice [3], the “reversal of tactile allodynia produced by repeat dosing of sumatriptan” value is recorded as “able to reverse tactile allodynia produced by repeat dosing of sumatriptan”. Also, the “reversal of opioid induced hyperalgesia” value with male c57bl6J mice [4] is given as “able to reverse opioid induced hyperalgesia”. In the series on male c57bl6J mice [5], the “induction of medication overuse headache (tactile allodynia after repeat dosing)” value is recorded as “does not induce medication overuse headache”.
